Values joined by “and” are separate entries in the source; they are usually repeats but may differ in a detail not shown here. Equal values may be shown once. Inconclusive results and toxic doses are left out. How the source made its calls: active means survival T/C of 150% or more; inactive means T/C below 125% in these data.
Tested on: BDF1 mice, B16 melanoma ip, median survival T/C
Experiment: NCI In Vivo Anticancer Drug Screen. Data for tumor model B16 Melanoma (intraperitoneal) in B6D2F1 (BDF1) mice
Details: endpoint: median survival time, higher = longer survival
Outline: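 Compounds were tested in mice carrying transplantable tumors. Survival or tumor size was recorded, and each value is the treated-group measurement (T) divided by that of the vehicle-treated control group (C).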

[1] = dose: 1.0 mg/kg/injection, schedule: Q01DX009 (ip), vehicle: saline
[2] = dose: 2.0 mg/kg/injection, schedule: Q01DX009 (ip), vehicle: saline
[3] = dose: 4.0 mg/kg/injection, schedule: Q01DX009 (ip), vehicle: saline
[4] = dose: 6.25 mg/kg/injection, schedule: Q01DX009 (ip), vehicle: saline with Tween-80
[5] = dose: 25.0 mg/kg/injection, schedule: Q01DX009 (ip), vehicle: saline with Tween-80
[6] = dose: 100.0 mg/kg/injection, schedule: Q01DX009 (ip), vehicle: saline with Tween-80
[7] = dose: 200.0 mg/kg/injection, schedule: Q01DX009 (ip), vehicle: saline with Tween-80
[8] = dose: 12.5 mg/kg/injection, schedule: Q01DX009 (ip), vehicle: saline with Tween-80
[9] = dose: 50.0 mg/kg/injection, schedule: Q01DX009 (ip), vehicle: saline with Tween-80
[10] = dose: 100.0 mg/kg/injection, schedule: Q04DX003 (ip), vehicle: saline
[11] = dose: 200.0 mg/kg/injection, schedule: Q04DX003 (ip), vehicle: saline
[12] = dose: 400.0 mg/kg/injection, schedule: Q04DX003 (ip), vehicle: saline
[13] = dose: 100.0 mg/kg/injection, schedule: Q01DX009 (ip), vehicle: Klucel (hydroxypropylcellulose) (HPC)
[14] = dose: 200.0 mg/kg/injection, schedule: Q01DX009 (ip), vehicle: Klucel (hydroxypropylcellulose) (HPC)
[15] = dose: 100.0 mg/kg/injection, schedule: Q04DX003 (ip), vehicle: Klucel (hydroxypropylcellulose) (HPC)
[16] = dose: 200.0 mg/kg/injection, schedule: Q04DX003 (ip), vehicle: Klucel (hydroxypropylcellulose) (HPC)

Measured: T/C

NC(=S)N/N=C/c1ccc2c(c1)OCO2
inactive: dose: 50.0 mg/kg/injection, schedule: Q04DX003 (ip), vehicle: saline with Tween-80 106 % of control | dose: 100.0 mg/kg/injection, schedule: Q04DX003 (ip), vehicle: saline with Tween-80 106 % of control | dose: 200.0 mg/kg/injection, schedule: Q04DX003 (ip), vehicle: saline with Tween-80 110 % of control

CC1(C)N=C(N)N=C(N)N1c1cccc(CNC(=O)Nc2cccc(S(=O)(=O)F)c2)c1
inactive: dose: 50.0 mg/kg/injection, schedule: Q01DX009 (ip), vehicle: saline 101 % of control

CC[C@](O)(C(=O)O)c1cc2n(c(=O)c1CO)Cc1cc3ccccc3nc1-2
inactive: dose: 0.79 mg/kg/injection, schedule: Q01DX009 (ip), vehicle: other 117 % of control | [1] 115 % of control and 121 % of control | [2] 117 % of control
active: [3] 150 % of control

CCCCC#CCOCC(O)CCl (centres undefined)
inactive: dose: 3.13 mg/kg/injection, schedule: Q01DX009 (ip), vehicle: saline with Tween-80 118 % of control | [4] 114 % of control | [5] 101 % of control

CCC[P+](c1ccccc1)(c1ccccc1)c1ccccc1
inactive: [2] 96 % of control | [3] 98 % of control | dose: 8.0 mg/kg/injection, schedule: Q01DX009 (ip), vehicle: saline 115 % of control | dose: 16.0 mg/kg/injection, schedule: Q01DX009 (ip), vehicle: saline 115 % of control | dose: 32.0 mg/kg/injection, schedule: Q01DX009 (ip), vehicle: saline 108 % of control

N#C/C(=C\c1c[nH]c2ccccc12)C(N)=O
inactive: [6] 108 % of control | [7] 108 % of control | dose: 400.0 mg/kg/injection, schedule: Q01DX009 (ip), vehicle: saline with Tween-80 108 % of control

OCC1OC(n2cnc3c2NC=NC[C@H]3O)CC1O (some centres undefined)
inactive: dose: 0.06 mg/kg/injection, schedule: Q01DX009 (ip), vehicle: saline 109 % of control | dose: 0.12 mg/kg/injection, schedule: Q01DX009 (ip), vehicle: saline 104 % of control | dose: 0.25 mg/kg/injection, schedule: Q01DX009 (ip), vehicle: saline 101 % of control and 103 % of control | dose: 0.5 mg/kg/injection, schedule: Q01DX009 (ip), vehicle: saline 102 % of control and 106 % of control | [1] 90 % of control and 98 % of control | [2] 86 % of control

CSc1ccc(NC(=O)CCl)cc1
inactive: [8] 95 % of control | [5] 105 % of control | [9] 96 % of control

O=[N+]([O-])c1cc(Br)cc(Br)c1S(=O)(=O)O
inactive: [10] 100 % of control | [11] 108 % of control | [12] 104 % of control

CN(C)CCCN=Cc1ccccc1O.CN(C)CCCN=Cc1ccccc1O.[Ni+2]
inactive: dose: 6.25 mg/kg/injection, schedule: Q04DX003 (ip), vehicle: saline with Tween-80 92 % of control | dose: 25.0 mg/kg/injection, schedule: Q04DX003 (ip), vehicle: saline with Tween-80 86 % of control

C=CCNc1nc2c(s1)CCc1cc(OC)c(OC)cc1-2
inactive: [8] 104 % of control | [5] 106 % of control | [9] 115 % of control | [6] 104 % of control | [7] 104 % of control

NC(Cc1cnc[nH]1)C(=O)O (centres undefined) (tested in a mixture with another compound)
inactive: dose: 100.0 mg/kg/injection, schedule: Q01DX009 (ip), vehicle: saline 106 % of control | [10] 104 % of control | dose: 200.0 mg/kg/injection, schedule: Q01DX009 (ip), vehicle: saline 100 % of control | [11] 90 % of control | dose: 400.0 mg/kg/injection, schedule: Q01DX009 (ip), vehicle: saline 100 % of control | [12] 102 % of control

CCC(=O)c1ccccc1N
inactive: [13] 97 % of control | [14] 98 % of control

CSCCC(N)C(=O)O (centres undefined)
inactive: dose: 40.0 mg/kg/injection, schedule: Q01DX009 (ip), vehicle: saline with Tween-80 103 % of control and 106 % of control | dose: 80.0 mg/kg/injection, schedule: Q01DX009 (ip), vehicle: saline with Tween-80 102 % of control and 108 % of control | dose: 160.0 mg/kg/injection, schedule: Q01DX009 (ip), vehicle: saline with Tween-80 113 % of control and 118 % of control | dose: 320.0 mg/kg/injection, schedule: Q01DX009 (ip), vehicle: saline with Tween-80 94 % of control and 100 % of control

Cc1ccc(Cl)cc1NC(=O)c1ccc(Cl)cc1Cl
inactive: [15] 95 % of control | [16] 102 % of control

NC(=O)C1(N2CCCC2)CCN(Cc2ccccc2)CC1
inactive: dose: 25.0 mg/kg/injection, schedule: Q04DX003 (ip), vehicle: Klucel (hydroxypropylcellulose) (HPC) 105 % of control | dose: 50.0 mg/kg/injection, schedule: Q04DX003 (ip), vehicle: Klucel (hydroxypropylcellulose) (HPC) 94 % of control | [15] 100 % of control

CCCCNC(C)(C)C(SSC(c1ccc(Cl)cc1)C(C)(C)NCCCC)c1ccc(Cl)cc1 (centres undefined)
inactive: dose: 6.25 mg/kg/injection, schedule: Q01DX009 (ip), vehicle: saline 109 % of control | dose: 12.5 mg/kg/injection, schedule: Q01DX009 (ip), vehicle: saline 97 % of control | dose: 25.0 mg/kg/injection, schedule: Q01DX009 (ip), vehicle: saline 88 % of control

CC(=O)O[C@@H]1[C@@H](O)C2=C3[C@]4(C)[C@@H]1C(C)(C)C(=O)C[C@@H]4[C@]3(O)[C@H](OC(C)=O)[C@@]1(C[C@@H]1C)C2=O
inactive: dose: 1.0 mg/kg/injection, schedule: Q01DX009 (ip), vehicle: saline with Tween-80 115 % of control | dose: 2.0 mg/kg/injection, schedule: Q01DX009 (ip), vehicle: saline with Tween-80 109 % of control | dose: 3.12 mg/kg/injection, schedule: Q01DX009 (ip), vehicle: saline with Tween-80 97 % of control and 101 % of control | dose: 4.0 mg/kg/injection, schedule: Q01DX009 (ip), vehicle: saline with Tween-80 102 % of control | [4] 104 % of control | dose: 8.0 mg/kg/injection, schedule: Q01DX009 (ip), vehicle: saline with Tween-80 114 % of control | [8] 119 % of control | [5] 104 % of control | [9] 101 % of control

CCCCCCC(=O)CCCC(C)CCCC(C)C (centres undefined)
inactive: [13] 91 % of control | [15] 105 % of control | [14] 88 % of control | [16] 94 % of control | dose: 400.0 mg/kg/injection, schedule: Q04DX003 (ip), vehicle: Klucel (hydroxypropylcellulose) (HPC) 88 % of control

ClC1(c2ccccc2)c2ccc(Br)cc2-c2cc(Br)ccc21
inactive: [6] 89 % of control | [7] 92 % of control

— PubChem BioAssay AID192 (DTP/NCI, 2004)
